Measurements taken from US11753407B2, “Compounds for treating spinal muscular atrophy” (PTC Therapeutics, Inc., priority 2012, dated 2023).

Legend:
[1] = tested on: Smn protein in SMA patient fibroblast cells (GM03813); test: Smn protein assay in cultured cells (SMN HTRF); assay type: cell-based, human; details: SMA patient fibroblast cells, 48 hours; for EC1.5x for Smn protein expression: 7-point concentration curve, SMN HTRF, concentration producing 1.5 times Smn protein vs DMSO vehicle control; for maximum fold (Fold) increase of Smn protein: 7-point concentration data, fold relative to vehicle control
Procedure, shortened: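 Read-out: HTRF 665/620 nm ratio, blank-subtracted as ΔF, then expressed as fold over DMSO vehicle. Fibroblasts from SMA patients were exposed to compounds for 48 h (7 points, 3.16-fold steps, triplicates). Values are EC1.5× and maximum fold Smn increase.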

[2] = tested on: SMN2 minigene mRNA (SMN2-A minigene) in HEK293H cells; test: SMN2 minigene mRNA splicing RT-qPCR assay in cultured cells; assay type: cell-based, human; details: Homo sapiens, HEK293-H; concentration increasing full length SMN2 mRNA 1.5-fold relative to vehicle-treated cells; HEK293H cells with SMN2-A minigene, 24 hours, 7-point concentration data; read-out: EC1.5x for production of full length SMN2 mRNA
Procedure, shortened: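 Read-out: minigene-specific full-length (exon 7-included) SMN2 mRNA by one-step multiplex RT-qPCR, normalized to GAPDH and divided by vehicle-treated level. Stable SMN2-A minigene HEK293H cells, 24 h compound exposure, 7 concentrations in duplicate. EC1.5× = concentration raising FL mRNA 1.5-fold.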

Compound | EC1.5x for Smn protein expression [1] | maximum fold (Fold) increase of Smn protein [1] | melting point [°C] | EC (1.5-fold increase) [2] [µM]
CCc1nc(C)cn2nc(-c3cc(=O)n4cc(C5CCN(CCCF)CC5)ccc4n3)cc12 [Compound 669, 2-(4-ethyl-6-methylpyrazolo[1,5-a]pyrazin-2-yl)-7-[1-(3-fluoropropyl)piperidin-4-yl]-4H-pyrido[1,2-a]pyrimidin-4-one] | **** (an EC1.5x≤0.3 μM is indicated by four stars (****)) | ***** (a fold increase >1.65 is indicated by five stars (*****)) | 216 to 218 | < 0.1
Cc1cn2nc(-c3cc(=O)n4cc(C5CCNCC5)cc(C)c4n3)cc2c(C)n1 [Compound 671, 2-(4,6-dimethylpyrazolo[1,5-a]pyrazin-2-yl)-9-methyl-7-(piperidin-4-yl)-4H-pyrido[1,2-a]pyrimidin-4-one] | **** (an EC1.5x≤0.3 μM is indicated by four stars (****)) | ***** (a fold increase >1.65 is indicated by five stars (*****)) | 247 to 255 | < 0.1
Cc1cn2nc(-c3cc(=O)n4cc(N5CCN(CCO)[C@H](C)C5)cc(C)c4n3)cc2c(C)n1 [Compound 673, 2-(4,6-dimethylpyrazolo[1,5-a]pyrazin-2-yl)-7-[(3R)-4-(2-hydroxyethyl)-3-methylpiperazin-1-yl]-9-methyl-4H-pyrido[1,2-a]pyrimidin-4-one] | **** (an EC1.5x≤0.3 μM is indicated by four stars (****)) | **** (a fold increase between >1.5 and ≤1.65 is indicated by four stars (****)) | 273 to 281 | < 0.1
Cc1cn2cc(-c3cc(=O)n4cc(N5CCN(C)CC5)ccc4n3)cc(CO)c2n1 [Compound 677, 2-[8-(hydroxymethyl)-2-methylimidazo[1,2-a]pyridin-6-yl]-7-(4-methylpiperazin-1-yl)-4H-pyrido[1,2-a]pyrimidin-4-one] | *** (an EC1.5× between >0.3 μM and ≤1 μM is indicated by three stars (***)) | ***** (a fold increase >1.65 is indicated by five stars (*****)) | 262 to 266 | < 0.1
CCN1CCN(c2ccc3nc(-c4cc(CO)c5nc(C)cn5c4)cc(=O)n3c2)CC1 [Compound 678, 7-(4-ethylpiperazin-1-yl)-2-[8-(hydroxymethyl)-2-methylimidazo[1,2-a]pyridin-6-yl]-4H-pyrido[1,2-a]pyrimidin-4-one] | **** (an EC1.5x≤0.3 μM is indicated by four stars (****)) | ***** (a fold increase >1.65 is indicated by five stars (*****)) | 258 to 262 | < 0.1
CCc1nc(C)cn2nc(-c3cc(=O)n4cc(C5CCN(C(C)C)CC5)ccc4n3)cc12 [Compound 679, 2-(4-ethyl-6-methylpyrazolo[1,5-a]pyrazin-2-yl)-7-[1-(propan-2-yl)piperidin-4-yl]-4H-pyrido[1,2-a]pyrimidin-4-one] | **** (an EC1.5x≤0.3 μM is indicated by four stars (****)) | ***** (a fold increase >1.65 is indicated by five stars (*****)) | 228 to 230 | < 0.1
CCc1nc(C)cn2nc(-c3cc(=O)n4cc(C5CCN(C6CC6)CC5)ccc4n3)cc12 [Compound 680, 7-(1-cyclopropylpiperidin-4-yl)-2-(4-ethyl-6-methylpyrazolo[1,5-a]pyrazin-2-yl)-4H-pyrido[1,2-a]pyrimidin-4-one] | **** (an EC1.5x≤0.3 μM is indicated by four stars (****)) | ***** (a fold increase >1.65 is indicated by five stars (*****)) | 196 to 199 | < 0.1
CCc1nc(C)cn2nc(-c3cc(=O)n4cc(C5CCN(C6CCC6)CC5)ccc4n3)cc12 [Compound 681, 7-(1-cyclobutylpiperidin-4-yl)-2-(4-ethyl-6-methylpyrazolo[1,5-a]pyrazin-2-yl)-4H-pyrido[1,2-a]pyrimidin-4-one] | **** (an EC1.5x≤0.3 μM is indicated by four stars (****)) | ***** (a fold increase >1.65 is indicated by five stars (*****)) | 227 to 229 | < 0.1
CCc1nc(C)cn2nc(-c3cc(=O)n4cc(C5CCN(C6COC6)CC5)ccc4n3)cc12 [Compound 682, 2-(4-ethyl-6-methylpyrazolo[1,5-a]pyrazin-2-yl)-7-[1-(oxetan-3-yl)piperidin-4-yl]-4H-pyrido[1,2-a]pyrimidin-4-one] | ** (an EC1.5× between >1 μM and ≤3 μM is indicated by two stars (**)) | ***** (a fold increase >1.65 is indicated by five stars (*****)) | 190 to 192 | 0.3 to 1
Cc1cn2nc(-c3cc(=O)n4cc(N5CCNCC5)ccc4n3)cc2c(C2CC2)n1 [Compound 683, 2-(4-cyclopropyl-6-methylpyrazolo[1,5-a]pyrazin-2-yl)-7-(piperazin-1-yl)-4H-pyrido[1,2-a]pyrimidin-4-one] | *** (an EC1.5× between >0.3 μM and ≤1 μM is indicated by three stars (***)) | ***** (a fold increase >1.65 is indicated by five stars (*****)) | 226 to 229 | < 0.1
Cc1cn2nc(-c3cc(=O)n4cc(N5CCN(C)CC5)ccc4n3)cc2c(C2CC2)n1 [Compound 684, 2-(4-cyclopropyl-6-methylpyrazolo[1,5-a]pyrazin-2-yl)-7-(4-methylpiperazin-1-yl)-4H-pyrido[1,2-a]pyrimidin-4-one] | *** (an EC1.5× between >0.3 μM and ≤1 μM is indicated by three stars (***)) | ***** (a fold increase >1.65 is indicated by five stars (*****)) | 238 to 240 | 0.1 to 0.3
CCN1CCN(c2ccc3nc(-c4cc5c(C6CC6)nc(C)cn5n4)cc(=O)n3c2)CC1 [Compound 685, 2-(4-cyclopropyl-6-methylpyrazolo[1,5-a]pyrazin-2-yl)-7-(4-ethylpiperazin-1-yl)-4H-pyrido[1,2-a]pyrimidin-4-one] | ** (an EC1.5× between >1 μM and ≤3 μM is indicated by two stars (**)) | **** (a fold increase between >1.5 and ≤1.65 is indicated by four stars (****)) | 236 to 238 | 0.1 to 0.3
Cc1cn2nc(-c3cc(=O)n4cc(N5CCN(CCO)CC5)ccc4n3)cc2c(C2CC2)n1 [Compound 686, 2-(4-cyclopropyl-6-methylpyrazolo[1,5-a]pyrazin-2-yl)-7-[4-(2-hydroxyethyl)piperazin-1-yl]-4H-pyrido[1,2-a]pyrimidin-4-one] | ** (an EC1.5× between >1 μM and ≤3 μM is indicated by two stars (**)) | ***** (a fold increase >1.65 is indicated by five stars (*****)) | 239 to 241 | 0.3 to 1
CCCN1CCC(c2ccc3nc(-c4cc5c(C)nc(C)cn5n4)cc(=O)n3c2)CC1 [Compound 687, 2-(4,6-dimethylpyrazolo[1,5-a]pyrazin-2-yl)-7-(1-propylpiperidin-4-yl)-4H-pyrido[1,2-a]pyrimidin-4-one] | **** (an EC1.5x≤0.3 μM is indicated by four stars (****)) | **** (a fold increase between >1.5 and ≤1.65 is indicated by four stars (****)) | 185 to 187 | < 0.1
Cc1nc2ccc(-c3cc(=O)n4cc(N5CCN(C)CC5)ccc4n3)cc2[nH]1 [Compound 689, 2-(2-methyl-1H-benzimidazol-6-yl)-7-(4-methylpiperazin-1-yl)-4H-pyrido[1,2-a]pyrimidin-4-one] | *** (an EC1.5× between >0.3 μM and ≤1 μM is indicated by three stars (***)) | **** (a fold increase between >1.5 and ≤1.65 is indicated by four stars (****)) | 292 to 294 | 0.1 to 0.3
CCN1CCN(c2ccc3nc(-c4ccc5nc(C)[nH]c5c4)cc(=O)n3c2)CC1 [Compound 690, 7-(4-ethylpiperazin-1-yl)-2-(2-methyl-1H-benzimidazol-6-yl)-4H-pyrido[1,2-a]pyrimidin-4-one] | *** (an EC1.5× between >0.3 μM and ≤1 μM is indicated by three stars (***)) | **** (a fold increase between >1.5 and ≤1.65 is indicated by four stars (****)) | 283 to 285 | < 0.1
Cc1cn2cc(-c3cc(=O)n4nc(C5CCNCC5)ccc4n3)cc(C)c2n1 [Compound 691, 2-(2,8-dimethylimidazo[1,2-a]pyridin-6-yl)-7-(piperidin-4-yl)-4H-pyrimido[1,2-b]pyridazin-4-one] | **** (an EC1.5x≤0.3 μM is indicated by four stars (****)) | ***** (a fold increase >1.65 is indicated by five stars (*****)) | 215 to 217 | < 0.1
